Results as given in US7214669B2, “Tetracycline derivatives and methods of use thereof” (Tetragenex Pharmaceuticals, Inc., priority 2001, dated 2007).

Columns and labels:
[1] = biological target: Human recombinant MMP3 (Homo sapiens, UniProt P08254); assay: MMP3 (Stromelysin 1) inhibition, 14C casein release; type: biochemical; conditions: 37° C., 16 hours; read-out: MMP-3 inhibitory activity, IC50
[2] = biological target: Human recombinant MMP9 (Homo sapiens, UniProt P14780); assay: MMP9 (Gelatinase B) inhibition, 14C gelatin release; type: biochemical; conditions: 37° C., 16 hours; read-out: MMP-9 inhibitory activity, IC50
Human recombinant MMP9, sequence (P14780 94-707): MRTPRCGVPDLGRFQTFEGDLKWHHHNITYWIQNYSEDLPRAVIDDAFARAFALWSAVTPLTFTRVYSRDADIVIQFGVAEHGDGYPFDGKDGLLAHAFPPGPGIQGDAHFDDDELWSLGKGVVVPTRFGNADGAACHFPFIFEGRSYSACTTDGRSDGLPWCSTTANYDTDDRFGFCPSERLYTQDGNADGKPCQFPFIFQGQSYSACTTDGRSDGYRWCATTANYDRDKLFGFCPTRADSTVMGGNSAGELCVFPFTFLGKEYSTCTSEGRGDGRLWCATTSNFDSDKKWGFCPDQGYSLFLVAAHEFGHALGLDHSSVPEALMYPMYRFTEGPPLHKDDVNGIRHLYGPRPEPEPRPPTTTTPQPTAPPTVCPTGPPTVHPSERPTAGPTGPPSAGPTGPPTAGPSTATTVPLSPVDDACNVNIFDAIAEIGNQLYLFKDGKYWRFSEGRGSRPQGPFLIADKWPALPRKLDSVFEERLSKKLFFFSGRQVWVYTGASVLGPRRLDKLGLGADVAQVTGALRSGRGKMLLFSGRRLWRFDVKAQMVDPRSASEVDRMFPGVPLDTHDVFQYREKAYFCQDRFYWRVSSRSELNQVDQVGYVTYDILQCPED

[3] = biological target: T1, Human recombinant MMP7 (Homo sapiens, UniProt P09237); assay: MMP7 (Matrilysin) inhibition, 14C casein release; type: biochemical; conditions: 37° C., 16 hours; read-out: MMP-7 inhibitory activity, IC50
T1 sequence (P09237 95-267): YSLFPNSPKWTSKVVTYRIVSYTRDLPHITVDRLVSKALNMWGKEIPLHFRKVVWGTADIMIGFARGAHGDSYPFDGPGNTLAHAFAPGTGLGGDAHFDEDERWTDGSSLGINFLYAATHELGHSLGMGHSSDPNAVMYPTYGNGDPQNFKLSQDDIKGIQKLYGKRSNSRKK
Description: MMP7 activity was determined by the release of trichloracetic acid, TCA, soluble fragments from ^14C acetylated β casein (Sigma) as described in Methods in Enzymology 248, 451 (1995).
• 100 μg ^14C casein (7000 dpm) • 50 mM Tris HCl, pH 7.9 • 15 mM CaCl2, 0.02% azide • Human recombinant MMP7, 1.5 nM • ±tetracycline (up to 1 mM) in a total volume of 250 μl.
Incubations were at 37° C. for 16 hours. The incubation was stopped by the addition of 500 μl cold 18% TCA and standing on ice for 15 minutes. TCA precipitates were removed by centrifugation at 10,000 g for 10 minutes at 4° C., and 200 μl supernatant was taken for scintillation counting. Only data derived from within the linear part of the assay (10–60% lysis) were utilized. The percentage inhibition of MMP7 by each concentration of the candidate tetracycline were plotted to derive the IC50 value.

[4] = biological target: T2, MMP2 (Gelatinase A) (Homo sapiens, UniProt P08253); assay: MMP2 (Gelatinase A) inhibition, 14C gelatin release; type: biochemical; conditions: 37° C., 16 hours; read-out: MMP-2 inhibitory activity, IC50
T2 sequence (P08253 110-660): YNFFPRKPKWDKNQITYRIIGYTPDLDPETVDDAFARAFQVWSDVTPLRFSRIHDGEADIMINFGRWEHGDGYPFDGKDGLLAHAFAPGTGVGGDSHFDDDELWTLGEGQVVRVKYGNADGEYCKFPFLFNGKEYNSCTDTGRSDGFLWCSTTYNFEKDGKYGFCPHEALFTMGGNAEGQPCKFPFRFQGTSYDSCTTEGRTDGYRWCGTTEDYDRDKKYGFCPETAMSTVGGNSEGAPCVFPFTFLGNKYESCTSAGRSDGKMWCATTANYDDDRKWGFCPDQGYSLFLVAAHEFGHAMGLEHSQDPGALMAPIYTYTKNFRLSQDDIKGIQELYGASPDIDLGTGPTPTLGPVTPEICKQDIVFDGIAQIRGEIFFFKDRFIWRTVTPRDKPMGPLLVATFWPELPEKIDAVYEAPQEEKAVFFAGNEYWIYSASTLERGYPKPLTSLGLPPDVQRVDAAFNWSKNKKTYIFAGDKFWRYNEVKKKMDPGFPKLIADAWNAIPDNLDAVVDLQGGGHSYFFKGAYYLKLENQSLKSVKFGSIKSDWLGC

[5] = biological target: Human recombinant MMP14 (Homo sapiens, UniProt P50281); assay: MMP14 (MTI-MMP) inhibition, 14C collagen release; type: biochemical; conditions: 35° C., 15 hours; read-out: MMP-14 inhibitory activity, IC50
[6] = biological target: T3, Human recombinant MMP1 (Homo sapiens, UniProt P03956); assay: MMP1 (Collagenase-1) inhibition, 14C collagen release; type: biochemical; conditions: 35° C., 5 hours; read-out: MMP-1 inhibitory activity, IC50
T3 sequence (P03956 100-469): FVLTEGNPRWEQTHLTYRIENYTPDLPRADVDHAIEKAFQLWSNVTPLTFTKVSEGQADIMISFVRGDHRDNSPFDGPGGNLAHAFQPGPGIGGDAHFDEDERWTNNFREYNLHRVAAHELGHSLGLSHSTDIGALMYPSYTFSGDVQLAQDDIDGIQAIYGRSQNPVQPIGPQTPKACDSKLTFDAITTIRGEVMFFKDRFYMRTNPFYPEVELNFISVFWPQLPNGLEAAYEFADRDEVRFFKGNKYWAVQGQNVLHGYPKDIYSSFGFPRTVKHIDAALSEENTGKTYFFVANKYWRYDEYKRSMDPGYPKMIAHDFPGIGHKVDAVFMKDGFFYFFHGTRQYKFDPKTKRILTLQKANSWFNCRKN

[7] = tested on: MDA-MB-231 human breast cancer cells; assay: Membrane Invasion Culture System (MICS) chemo-invasion assay; type: cell-based; conditions: 24 hours, + = increased invasiveness
Method in brief: (§1)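 Fifty thousand cells were seeded above a 35 μm laminin/collagen IV/gelatin barrier on a 10 μm-pore filter, with serum-free RPMI plus 50% fibroblast-conditioned medium below as chemoattractant. Compound at 1, 10 or 25 μg/ml, or DMSO vehicle, was present for 24 h. Invaded cells were collected, Wright-stained and counted over 5 fields.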

[8] = tested on: C8161 human melanoma cells; assay: as above; type: cell-based; conditions: 24 hours, + = increased invasiveness
Method in brief: as §1

[9] = tested on: PC-3 ML human prostate cancer cells; assay: as above; type: cell-based; conditions: 24 hours, + = increased invasiveness
Method in brief: as §1

[10] = tested on: RPMI-8226 human myeloma cancer cells; assay: as above; type: cell-based; conditions: 24 hours, + = increased invasiveness
Method in brief: as §1

Human recombinant MMP3, sequence (P08254 100-477): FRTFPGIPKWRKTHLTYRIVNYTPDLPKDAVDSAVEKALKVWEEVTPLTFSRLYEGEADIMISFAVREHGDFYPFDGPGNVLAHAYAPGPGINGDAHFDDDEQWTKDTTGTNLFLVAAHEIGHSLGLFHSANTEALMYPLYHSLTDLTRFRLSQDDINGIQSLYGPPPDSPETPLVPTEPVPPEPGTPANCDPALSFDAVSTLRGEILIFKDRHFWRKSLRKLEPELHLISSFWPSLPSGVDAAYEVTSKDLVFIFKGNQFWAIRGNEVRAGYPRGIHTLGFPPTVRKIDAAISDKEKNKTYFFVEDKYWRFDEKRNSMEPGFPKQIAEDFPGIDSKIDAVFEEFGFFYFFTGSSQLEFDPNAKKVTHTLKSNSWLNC

Structure (SMILES)	IC50 [1]	IC50 [2]	IC50 [3]	IC50 [4]	IC50 [5]	IC50 [6]	percent inhibition, MDA-MB-231 (Breast) ([7]; 1 ug/mL)	percent inhibition, MDA-MB-231 (Breast) ([7]; 10 ug/mL)	percent inhibition, MDA-MB-231 (Breast) ([7]; 25 ug/mL)	percent inhibition, C8161 (Melanoma) ([8]; 1 ug/mL)	percent inhibition, C8161 (Melanoma) ([8]; 10 ug/mL)	percent inhibition, C8161 (Melanoma) ([8]; 25 ug/mL)	percent inhibition, PC-3 ML (Prostrate) ([9]; 1 ug/mL)	percent inhibition, PC-3 ML (Prostrate) ([9]; 10 ug/mL)	percent inhibition, PC-3 ML (Prostrate) ([9]; 25 ug/mL)	percent inhibition, RPMI-8226 (Multiple Myeloma) ([10]; 1 ug/mL)	percent inhibition, RPMI-8226 (Multiple Myeloma) ([10]; 10 ug/mL)	percent inhibition, RPMI-8226 (Multiple Myeloma) ([10]; 25 ug/mL)
CC(=O)Nc1ccc2c(c1O)C(=O)C1=C(O)C3(O)C(=O)C(C(N)=O)=C(O)C(N(C)C)C3C(O)C1C2C (centres unmarked) [Compound 16, 9-Acetamido-6-deoxy-5-hydroxytetracycline H2SO4]	> 1000 µM	215 µM	569 µM	215 µM	715 µM	452 µM												
CN(C)c1cc([N+](=O)[O-])c(O)c2c1CC1CC3C(N(C)C)C(O)=C(C(N)=O)C(=O)C3(O)C(O)=C1C2=O (centres unmarked) [Compound 4, 7-Dimethylamino-6-demethyl-6-deoxy-9-nitrotetracycline H2SO4]	219 µM	36 µM	278 µM	421 µM	61 µM	409 µM	5%	6%	2%	27^B percent	24^B percent	17%	10%	+8%	3%	+4%	+5%	+14%
C[C@H]1c2c(N)ccc(O)c2C(=O)C2=C(O)[C@]3(O)C(=O)C(C(N)=O)=C(O)[C@@H](N(C)C)[C@@H]3[C@@H](O)[C@@H]21.O=S(=O)(O)O [Compound 12, 7-Amino-6-deoxy-5-hydroxytetracycline H2SO4]		270 µM	503 µM	> 1000 µM	> 1000 µM	> 1000 µM				+11%	+13%	+12%						
CC1c2c(N(C)C)ccc(O)c2C(=O)C2=C(O)C3(O)C(=O)C(C(N)=O)=C(O)C(N(C)C)C3C(O)C21 (centres unmarked) [Compound 15, 7-Dimethylamino-6-deoxy-5-hydroxy-tetracycline H2SO4]	738 µM	402 µM	716 µM	234 µM	768 µM	> 1000 µM												
CN(C)c1ccc(O)c2c1CC1CC3CC(O)=C(C(N)=O)C(=O)C3(O)C(O)=C1C2=O (centres unmarked) [Compound 41, 4-Dedimethylamino-7-dimethylamino-6-demethyl-6-deoxy-tetracycline H2SO4]	54 µM	250 µM		889 µM	403 µM	478 µM	+8%	3%	2%	2%	8%	6%	+4%	4%	4%	7%	+6%	14%
CC1c2c(N)cc(C(C)(C)C)c(O)c2C(=O)C2=C(O)C3(O)C(=O)C(C(N)=O)=C(O)CC3C(O)C21.O=S(=O)(O)O (centres unmarked) [Compound 49, 7-Amino-9-tertbutyl-4-dedimethyl-6-deoxy-5-hydroxy-tetracycline-H2SO4]	141 µM	489 µM		1570 µM	87 µM	372 µM	6%	+5%	+1%	27^B percent	7%	30^B percent	4%	+5%	6%	11%	+2%	15%
CN(C)c1cc(N)c(O)c2c1CC1CC3C(N(C)C)C(O)=C(C(N)=O)C(=O)C3(O)C(O)=C1C2=O (centres unmarked) [Compound 7, 9-Amino-7-dimethylamino-6-demethyl-6-deoxytetracycline H2SO4]	300 µM	64 µM	335 µM	> 1000 µM	> 1000 µM		+18%	+41^B percent	+27%	7%	14%	16%	0%	0%	3%	+14^B percent	12%	+2%
CC1c2ccc([N+]#N)c(O)c2C(=O)C2=C(O)C3(O)C(=O)C(C(N)=O)=C(O)C(N(C)C)C3C(O)C21 (centres unmarked) [Compound 11, 6-Deoxy-5-hydroxytetracycline-9-diazonium H2SO4]	270 µM	96 µM	> 1000 µM	> 1000 µM	46 µM	427 µM	6%	15%	36^B percent	16%	46^B percent	41^B percent	+3%	0%	36^B percent			
CC(=O)Nc1cc(N(C)C)c2c(c1O)C(=O)C1=C(O)C3(O)C(=O)C(C(N)=O)=C(O)C(N(C)C)C3CC1C2 (centres unmarked) [Compound 8, 9-Acetamido-7-dimethylamino-6-demethyl-6-deoxytetracycline H2SO4]	232 µM	> 1000 µM	388 µM	599 µM	> 1000 µM	> 1000 µM	+10%	+5%	+13%	13^B percent	41^B percent	40^B percent	0%	+4%	0%	11%	3%	+2%
